Results reported in article PMC7617869, “Molecular glues that inhibit deubiquitylase activity and inflammatory signaling” (Nature Structural & Molecular Biology, 2025).
“And” between values parts separate entries of the source, which are not always exact repeats. Identical values can stand only once.

Legend:
BRISC (FL) = biological target: T1, BRISC (FL) (Homo sapiens, UniProt P46736+Q15018+Q9NXR7); test: In-gel deubiquitylation assay, TAMRA-labeled K63-tetraubiquitin, BRISC; assay type: biochemical; details: 10 μM or 100 μM inhibitor
T1 construct: full-length BRISC (FL), ARISC (FL); made in house; host or cells: Spodoptera frugiperda Sf9 insect cells (MultiBac)
Protocol: The inhibitor capzimin (Merck) was diluted in 1 mM DTT and incubated for 30 min at room temperature to reduce disulfide bonds required for inhibitor activity. […] DUBs were incubated with 750 nM TAMRA-labeled K63-tetraubiquitin (LifeSensors, SI6304T) for 10 min at 30 °C. Reactions were quenched by adding 2.5 μl of 4× SDS–PAGE loading dye (240 mM Tris-HCl pH 6.8, 40% v/v glycerol, 8% w/v SDS, 0.04% w/v bromophenol blue and 5% v/v β-mercaptoethanol). The samples were resolved on 4–12% NuPAGE Bis–Tris gels (Thermo Fisher Scientific). Gels were scanned using an iBright FL 1500 (Thermo Fisher Scientific) (excitation, 515–545 nm; emission, 568–617 nm; exposure, 500 ms).

BRISC–SHMT2 interaction = biological target: T2, BRISC–SHMT2 interaction (Homo sapiens, UniProt P46736+Q15018+Q9NXR7); test: Dianthus spectral shift binding assay (BRISC–SHMT2); details: labelled BRISC preincubated with 100 μM compound
T2 construct: His (tag of the complex); made in house
Protocol: Site-specific labeling of His-tagged BRISC was performed using a RED-Tris-NTA second-generation labeling kit (NanoTemper Technologies) in buffer containing 25 mM HEPES pH 7.5, 150 mM NaCl, 1 mM DTT and 0.005% Tween-20. First, 100 nM His–BRISC was incubated with 25 nM RED-Tris-NTA dye and prepared according to the Nanotemper protocol. […] The reactions were carried out in 384-well Dianthus microplates (Nanotemper Technologies) with a 20-μl reaction volume. The measurements were performed using autoexcitation on a Dianthus NT.23 instrument at 25 °C using DI.Control software (version 2.1.1; Nanotemper Technologies). Data were analyzed using DI.Screening Analysis software (version 2.1.1; Nanotemper Technologies) and plotted in GraphPad Prism (version 10.1.0). KD values were determined using a GraphPad Prism built-in equation for total binding (one site).

BRISC = biological target: T3, BRISC (Homo sapiens, UniProt P46736+Q15018+Q9NXR7); test: BRISC DUB activity assay (IQF K63-linked diubiquitin); assay type: biochemical; details: for Mean: Fig. 1d; for Normalised V0: replicate columns
T3 construct: made in house; host or cells: Spodoptera frugiperda (Sf9) insect cells, MultiBac
Protocol: IQF assays were performed in DUB reaction buffer containing 50 mM HEPES–NaOH pH 7.0, 100 mM NaCl, 0.1 mg ml^−1 BSA, 1 mM DTT and 0.03% v/v Brij-35. […] The final concentration of BRISC WT, all BRISC mutants, HsBRISCΔLoop, MmBRISC and DrBRISCΔNΔC was 1 nM. Other enzymes were tested at the following concentrations: 5 nM ARISC (FL), 10 nM CfBRISCΔNΔC, 250 nM AMSH* (ref. [43]), 500 nM USP2 and 1 μM trypsin (Sigma, 9002-07-7). For Michaelis–Menten experiments, 1 nM BRISC with 0–1 μM IQF K63-linked diubiquitin substrate was used. Michaelis–Menten analyses and Lineweaver–Burk plots were calculated using GraphPad Prism (version 9.0).
To assess enzymatic activity, BRISC complexes were diluted to concentrations between 1 nM and 50 nM. […] Then, 20-μl enzyme reactions were carried out in 384-well black flat-bottom low-flange plates (Corning, 35373). DUB activity was measured using IQF K63-linked diubiquitin (LifeSensors, DU6303) at 50 nM. Cleaved diubiquitin was monitored by measuring fluorescence intensity (excitation, 544 nm; emission, 575 nm; dichroic mirror, 560 nm). Fluorescence intensity was measured every minute for 30 min at 30 °C. Fluorescence intensity units were plotted against time to generate a linear reaction progress curve, where the initial velocity (V0) corresponds to the gradient of the curve (typically achieved within 15 min). IC50 values were calculated using the GraphPad Prism (version 9.0) built-in dose–response equation for inhibitor concentration versus response (variable slope).

## O=C(NC1CCN(C(=O)c2c(Cl)cccc2Cl)CC1)c1n[nH]cc1NC(=O)c1c(Cl)cccc1Cl [AP-5-144]
BRISC (FL)
  inhibition of BRISC cleavage of K63-linked tetraubiquitin: did not inhibit
BRISC–SHMT2 interaction; SHMT2 0.00140381 μM
  Ratio 670 nm/650 nm: 1.077 and 1.081 and 1.064
BRISC–SHMT2 interaction; SHMT2 0.00280762 μM
  Ratio 670 nm/650 nm: 1.075 and 1.068 and 1.082
BRISC–SHMT2 interaction; SHMT2 0.00561523 μM
  Ratio 670 nm/650 nm: 1.073 and 1.081 and 1.075
BRISC–SHMT2 interaction; SHMT2 0.0112305 μM
  Ratio 670 nm/650 nm: 1.064 and 1.071 and 1.065
BRISC–SHMT2 interaction; SHMT2 0.0224609 μM
  Ratio 670 nm/650 nm: 1.049 and 1.052
BRISC–SHMT2 interaction; SHMT2 0.0449219 μM
  Ratio 670 nm/650 nm: 1.026 and 1.035 and 1.037
BRISC–SHMT2 interaction; SHMT2 0.0898438 μM
  Ratio 670 nm/650 nm: 1.012 and 1.013 and 1.006
BRISC–SHMT2 interaction; SHMT2 0.179688 μM
  Ratio 670 nm/650 nm: 0.993 and 0.976 and 0.943
BRISC–SHMT2 interaction; SHMT2 0.359375 μM
  Ratio 670 nm/650 nm: 0.948 and 0.935 and 0.925
BRISC–SHMT2 interaction; SHMT2 0.71875 μM
  Ratio 670 nm/650 nm: 0.903 and 0.887 and 0.836
BRISC–SHMT2 interaction; SHMT2 1.4375 μM
  Ratio 670 nm/650 nm: 0.863 and 0.84 and 0.841
BRISC–SHMT2 interaction; SHMT2 2.875 μM
  Ratio 670 nm/650 nm: 0.823 and 0.805 and 0.806
BRISC–SHMT2 interaction; SHMT2 5.75 μM
  Ratio 670 nm/650 nm: 0.792 and 0.756 and 0.785
BRISC–SHMT2 interaction; SHMT2 11.5 μM
  Ratio 670 nm/650 nm: 0.776 and 0.777 and 0.775
BRISC–SHMT2 interaction; SHMT2 23 μM
  Ratio 670 nm/650 nm: 0.77 and 0.773 and 0.777
BRISC–SHMT2 interaction; SHMT2 46 μM
  Ratio 670 nm/650 nm: 0.768 and 0.78 and 0.777
BRISC; log[compound (μM)] 0.1931
  Mean: 1.0068
BRISC; log[compound (μM)] 0.4942
  Mean: 1.0306
BRISC; log[compound (μM)] 0.7959
  Mean: 0.9990
BRISC; log[compound (μM)] 1.0969
  Mean: 1.0116
BRISC; log[compound (μM)] 1.3979
  Mean: 0.9713
BRISC; log[compound (μM)] 1.6990
  Mean: 1.1388
BRISC; log[compound (μM)] 2.0000
  Mean: 1.0728
BRISC; log[compound (μM)] 2.3010
  Mean: 1.1033
BRISC; log[compound (μM)] -0.1079
  Mean: 1.1343
BRISC; log[compound (μM)] -0.4089
  Mean: 1.1217
BRISC; log[compound (μM)] -0.7212
  Mean: 1.1333
BRISC; log[compound (μM)] -1.7212
  Mean: 1.0000
BRISC; IQF diubiquitin assay
  inhibition of BRISC DUB activity (in words): did not inhibit
BRISC; [Inhibitor] 0.013 μM
  Normalised V0: 0.9578 and 1.102 and 0.7959 and 1.072
BRISC; [Inhibitor] 0.02 μM
  Normalised V0: 0.8824 and 1.105
BRISC; [Inhibitor] 0.0399999 μM
  Normalised V0: 1.048 and 1.358
BRISC; [Inhibitor] 0.0599997 μM
  Normalised V0: 0.9169 and 1.23
BRISC; [Inhibitor] 0.0799994 μM
  Normalised V0: 1.0394 and 1.173
BRISC; [Inhibitor] 0.119998 μM
  Normalised V0: 0.856 and 0.7489
BRISC; [Inhibitor] 0.199996 μM
  Normalised V0: 0.9661 and 1.115
BRISC; [Inhibitor] 0.499975 μM
  Normalised V0: 0.9387 and 1.144
BRISC; [Inhibitor] 0.799936 μM
  Normalised V0: 0.8532 and 1.098
BRISC; [Inhibitor] 1.25984 μM
  Normalised V0: 0.9637 and 1.032
BRISC; [Inhibitor] 1.9996 μM
  Normalised V0: 0.7701 and 1.137
BRISC; [Inhibitor] 3.159 μM
  Normalised V0: 0.887 and 1.055
BRISC; [Inhibitor] 5.19739 μM
  Normalised V0: 0.7796 and 1.219
BRISC; [Inhibitor] 7.99364 μM
  Normalised V0: 0.912 and 1.161
BRISC; [Inhibitor] 12.7839 μM
  Normalised V0: 0.972 and 1.143
BRISC; [Inhibitor] 19.96 μM
  Normalised V0: 0.9311 and 1.165
BRISC; [Inhibitor] 31.4999 μM
  Normalised V0: 0.8747 and 1.168
BRISC; [Inhibitor] 50.147 μM
  Normalised V0: 0.908 and 1.016
BRISC; [Inhibitor] 79.7601 μM
  Normalised V0: 0.7753 and 1.257
BRISC; [Inhibitor] 125.99 μM
  Normalised V0: 0.9194 and 0.97
BRISC; [Inhibitor] 199.922 μM
  Normalised V0: 0.8606 and 0.9293
